Data published in patent publication US20070248590A1, “Modulators of CDC2-like kinases (CLKS) and methods of use thereof” (Sirtris Pharmaceuticals, Inc., priority 2005, published 2007).

Experiments:
[1] = system: insulin induction of CLK2 alternate splicing in FAO cells; assay: CLK2 splicing analysis (RT-PCR with primers flanking exon 4) in FAO cells; format: cell-based, rat; conditions: 20 μM inhibitor pretreatment
Method: Splicing Analysis. Total RNA was isolated from FAO hepatocytes pre-treated with indicated inhibitor then Insulin for 2 hours. RT-PCR was performed using SuperScript One-Step RT-PCR with taq (Invitrogen) on 1 ug of total RNA using primers flanking exon 4 on Clk2 and Clk1.

[2] = system: PGC-1alpha and SIRT1 phosphorylation in H2.35 cells; assay: Metabolic 32P PO4 labeling of H2.35 cells, insulin stimulated; format: cell-based, mouse; conditions: 30 minutes pretreatment, 40 minute insulin stimulation
Method: PGC-1alpha and SIRT1 phosphorylation in vivo is stimulated by insulin and blocked by LY and TG003 as determined by metabolic ^32P PO4 labeling of H2.35 cells infected with adenovirus Flag-Ha-PGC-1alpha or Flag-HA-SIRT1. Cells were infected for 24 hours low glucose DMEM 4% FBS then serum starved for 24 hours in low glucose DMEM 0.5% BSA. Media was then replaced with PO4 free DMEM 0.5% BSA for 30 minutes, and cells were then pretreated with LY or TG003 for 30 minutes before addition of 100 uCi ^32P PO4. Cells were incubated in ^32P PO4 for 20 minutes before a 40 minute insulin stimulation. Cells were then washed with ice-cold PBS, harvested and lysed. Flag-HA-PCC-1alpha and Flag-HA-SIRT1 were immunoprecipitated used anti-flag agarose (Sigma-Aldrich, Cat. #A4596). Immunoprecipitates were washed extensively and analyzed by SDS-PAGE, transferred to PVDF membrane where ^32P signal was analyzed by a Bio-Rad Phosphor-Imager (Bio-Rad Laboratories) (FIG. 20A) and normalized to protein quantitated by western blot using anti-flag antibodies by a Versa-Doc camera system and quantitation software (Bio-Rad Laboratories) (FIG. 20B).

[3] = system: CLK2 repression of PGC-1alpha coactivation of HNF4alpha; assay: gAF1-luciferase (HNF4alpha response element) reporter assay in HEK 293 cells; format: cell-based, human; conditions: 20 μM TG003
Method: Transient Transfections. HEK 293 were transfected using PolyFect (Qiagen). 25 ng of reporter (gAF1-Luciferase) and 25 ng of pcDNA mouse HNF4-alpha were transfected with pcDNA mouse PGC-1 alpha and pcDNA Flag-CLK2. Equal amounts of total DNA were used for all transfections by adding appropriate amounts of empty vector pcDNA. TG003 (Calbiochem) was added 4 hours after transfection and cells were harvested the next morning. The data presented is the average of 3 replicates from a single experiment, all luciferase experiments were performed at least 3 times with similar results.

[4] = system: diet-induced obese (DIO) C57BL/6 mice; assay: IP dosing of TG003 in DIO mouse model; format: in vivo
Method: Specifically, 5 week old C57BL/6 mice (male 18-22 grams, Charles River Labs, Willmington, Mass.) are placed either on a high fat diet (Research Diets Inc., New Brunswick, N.J., 60% kcal fat Rodent Diet Cat#D12492) or regular chow. Mice are weighed once a week for 5 weeks, test baseline fed glucose, lactate, triglycerides and insulin. At approximately 6 weeks or when mean weight of the DIO groups reach 40 grams, dosing is initiated. TG003 was dosed via IP injection at either 30 or 100 mg/kg (TG003 suspended in 2% HPMC+0.2% DOSS as in previous example). Control DIO and chow fed animals were dosed with IP injection of vehicle alone. Once dosing starts data collections was as follows: Week 1 time point includes a fasted blood glucose measurement, Week 2 blood collection, Week 3 an IPGTT and Week 4 is an endpoint blood and tissue collection.
Mice are dosed at the same time daily. Body weights are taken 2 times a week once dosing starts. Baseline measurements of fed glucose, lactate, triglycerides and insulin are taken at time 0 (commencement of dosing).
Insulin Assay: Mouse insulin levels were measured using the Linco Rat/Mouse Insulin ELISA kit (Cat. #EZRMI-13K). 0 week, 2 week and 4 week blood insulin levels are shown in FIGS. 27A, 27B and 27C respectively for 100 mg/kg TG003 study. 0 week, 2 week and 4 week blood insulin levels are shown in FIGS. 31A, 31B and 31C respectively for 30 mg/kg TG003 study.
IPGTT: Mice are fasted for a minimum of 16 hrs. A glucose reading is taken at time Zero using a glucose meter. Mice are injected with 2 g/kg D-Glucose at one minute time points. A glucose reading is taken at 15, 30, 60, and 120 minutes (Medisense Precision Extra, Blood Glucose Meter, Abbott Cat# 70297-01).

[5] = system: CLK2 interaction with Sirt1 in HEK 293 cells; assay: Co-immunoprecipitation of endogenous Sirt1 with Flag-CLK2 in HEK 293 cells; format: cell-based; conditions: HEK 293 cells transfected with Flag-CLK2
Method: (§1) Immunoprecipitation and Co-Immunoprecipitation. Cells were washed once with PBS containing Phosphatase inhibitors (5 mM Glycerol-2-phosphate, 20 mM NaF, and 0.2 mM Na OrthoVanadate), scraped into tubes, spun down, and lysed by 2× freeze-thaw cycles in 0.4% Triton, 100 mM NaCl, 20 mM KHepes pH 7.9, 1 mM EDTA, Phosphatase inhibitors, 1 mM PMSF, and 1× Protease Inhibitors (Roche). Immunoprecipitations were performed with M2 anti-flag agarose (sigma) or Anti-HA agarose (Roche) for 2 hours rotating at 4 degrees C. followed by 3 washes in lysis buffer. Products were resolved by SDS-PAGE and transferred to PVDF membranes for Western blot analysis.

[6] = system: total phosphorylation of PGC-1alpha and Sirt1 in FAO cells; assay: Metabolic 32P labeling of PGC-1alpha and Sirt1 in FAO hepatocytes; format: cell-based, rat; conditions: 40 μM TG003
Method: (§2) Cell Culture. HEK 293 Cells were cultured in DMEM+10% CCS. FAO Rat hepatocytes were grown in Hamm's F-12 media with 5% FBS. Prior to experiments or adenoviral infections media was switched to RPMI+0.5% BSA. H2.35 Mouse Hepatocytes were grown in DMEM (low glucose)+4% FBS and 2 μM Dexamethasome. Prior to experiments and infection, media was switched to DMEM (low glucose)+0.5% BSA. CLK inhibitor, TG003 (CalBiochem) was dissolved in DMSO.
Metabolic Labeling. HEK 293 were transfected as described above. The next morning cells were switched to DMEM without PO4+10% CCS for 30 minutes, cells were then treated with or without TG003 for 30 minutes then 200 μCi of ^32PO4 was added for 2 hours. Cells were harvested and immunoprecipitation was performed as described above. Immunoprecipitates were resolved by SDS-PAGE and transferred to PVDF membrane, ^32PO4 was detected by exposing membrane to Phospho-imaging screen and followed by Western-Blot using anti-flag antibodies (M2, Sigma).
FAO Hepatocytes were infected with adenovirus as indicated in the figures for 2 days in RPMI+0.5% BSA. Metabolic labeling was performed as described above, except cells were incubated in ^32PO4 for 4 hours.

[7] = system: PEPCK mRNA expression in FAO hepatocytes; assay: Pepck mRNA by Q-RT-PCR in FAO hepatocytes; format: cell-based, rat; conditions: 20 uM TG003 for 7 hours
Method: (§3) Cells were grown in F-12+5% FBS then switched to 10% FBS and treated with or without 20 uM TG003 for 7 hours. Total RNA was isolated using Trizol (Invitrogen, Cat. # 15596-026) and reverse transcribed using oligo dT and super script II (Inivtrogen, Cat. # 18064-014). Pepck mRNA was measured by Q-RT-PCR relative to 36B4 control mRNA. Each bar is average+/−stdev N=3.
as §3, with “serum starved O/N and” for “grown in F-12+5% FBS”, “then” for “then switched to 10% FBS and”, “200 nM Insulin” for “20 uM TG003”, “2” for “7”

[8] = system: CLK2 phosphorylation of Sirt1 in HEK 293 cells; assay: Metabolic 32P labeling of Flag-HA-Sirt1 in transfected HEK 293 cells; format: cell-based, human; conditions: 40 uM TG003
Method: as §2, §1
Metabolic Labeling. HEK 293 were transfected as described above. […] Immunoprecipitates were resolved by SDS-PAGE and transferred to PVDF membrane, ^32PO4 was detected by exposing membrane to Phospho-imaging screen and followed by Western-Blot using anti-flag antibodies (M2, Sigma).

[9] = system: gluconeogenic genes (PGC-1alpha targets) in FAO hepatocytes; assay: Northern blot of PGC-1alpha target genes in FAO hepatocytes; format: cell-based, rat
Method: Northern Blot and RNA analysis. FAO hepatocytes were infected with indicated adenovirus overnight in RPMI+0.5% BSA. Cells were grown for 2 more days in RPMI+0.5% BSA. Cells were treated as indicated. Total RNA was isolated using Trizol (Invitrogen). Northern blots using indicated cDNAs were performed on 15 μg of total RNA. Quantitation of RNA was performed by exposing membranes to phosphor-imager screens and analyzed by a Bio-Rad Personal Imager FX and Quantity-One quantitation software (Bio-Rad).

[10] = system: diet-induced obese (DIO) C57BL/6 mice; assay: Oral dosing of TG003 in DIO mouse model; format: in vivo
Method: Twenty 9 week old C57BL/6 mice were placed on 60% kcal % fat diet (high fat diet with 60% of calories from fat; Research Diets, Inc., New Brunswick, N.J. Cat. No. D12492) and 15 mice were placed on regular chow. Mice were weighed once a week for 5 weeks, baseline fed glucose, triglycerides and insulin was measured. At approximately 6 weeks on the high fat diet, or when the average body weight of the DIO mice becomes 40 grams, dosing began at various doses and preparations. Mice were dosed daily with either vehicle (2% HPMC+0.2% DOSS) or with TG003 suspended in vehicle and dosed via oral gavage at 100 mg/kg (10 animals each in DIO group; 9 animals in vehicle chow group and 6 animals in TG003 chow group). The study was divided into DIO groups with mean average body weight/cage. Chow fed groups were also sorted by mean average body weight/cage. Body weights were measured once weekly to adjust dosing concentrations for body weight.
Baseline blood on all mice for glucose, triglycerides, insulin, etc. was taken following a one hour food withdrawal. Once dosing started, data collections were as follows: Week 1 time point included fasted blood glucose and body temps for select groups, Week 2 was a fed blood collection, Week 3 fasted blood glucose, Week 4 body temps on select groups and endpoint blood and tissue collection. Body temperature of select groups post dosing on week 1 and week 4 was also taken. Concentration of TG003 compound is adjusted to proper dose according to the mean weight for each group weekly. Final blood collection of all groups was taken 1 hour after dosing in order to determine levels of drug in blood compared to original PK. Mice were not dosed on the day of week 2 blood collections. Mice are typically dosed in the a.m. and only dosed in the p.m. on a day following a 16 hr fast. A test for Free Fatty Acids is done with the plasma final blood collection and with final plasma collection. Assays were done as described above for TG003 IP dosing example.

HDAC = conditions: in vitro or in vivo, literature; cited from earlier work
[11] = systemic intraperitoneal delivery, DIO mice, 30 or 100 mg/kg
[12] = FAO hepatocytes overexpressing PGC-1alpha, increasing amounts of TG003

O=c1cc(N2CCOCC2)oc2c(-c3ccccc3)cccc12 [LY]
insulin induction of CLK2 alternate splicing (truncated transcript) [1]: blocks | insulin-stimulated PGC-1alpha phosphorylation [2]: blocked | insulin-stimulated SIRT1 phosphorylation [2]: blocked

CCN1/C(=C/C(C)=O)Sc2ccc(OC)cc21 [TG003, (Z)-1-(3-ethyl-5-methoxy-2,3-dihydrobenzothiazol-2-ylidene) propan-2-one]
CLK2 repression of PGC-1 alpha (luciferase activity) [3]: partially rescues | drug remaining at injection site upon sacrifice ([4]; IP dosing, multiple injections): observed in the intraperitoneal cavity | blood glucose levels [4, 11]: decrease | blood insulin levels [4, 11]: decrease | body weight [4, 11]: decrease | mobility of Sirt1 co-immunoprecipitated with CLK2 [5]: shifted to a band with faster mobility | insulin induction of CLK2 alternate splicing (truncated transcript) [1]: blocks | total phosphorylation of PGC-1alpha (32phosphate relative to protein levels) [6]: decreased | total phosphorylation of Sirt1 (32phosphate relative to protein levels) [6]: decreased | insulin-stimulated PGC-1alpha phosphorylation [2]: blocked | insulin-stimulated SIRT1 phosphorylation [2]: blocked | Pepck mRNA relative to 36B4 [7]: induction | incorporation of 32phosphate into Flag-HA-Sirt1 WT [8]: noticeably decreased | shift in Sirt1 mobility caused by overexpression of CLK2 [8]: abrogated | induction of G6Pase [9, 12]: seen in a dose dependent manner | induction of Pepck [9, 12]: seen in a dose dependent manner | CLK2 repression of PGC-1alpha induction of gluconeogenic genes (G6Pase, Pepck) ([9]; FAO hepatocytes, 40 μM TG003 for 1 hour then Fsk+Dex): rescued | in vivo effect on body weight seen with IP dosing ([10]; 100 mg/kg oral dosing): did not repeat | fed insulin ([10]; 100 mg/kg oral vs vehicle, 2 week, DIO or chow groups): not much of an effect | fed blood glucose ([10]; 100 mg/kg oral vs vehicle, 4 week, DIO or chow groups): not much of an effect | body temperature ([10]; DIO animals, 100 mg/kg oral, 1 week of dosing): significant drop | drop in body temperature ([10]; DIO animals, 100 mg/kg oral, 4 weeks of dosing): > 2 degree | body temperature ([10]; chow fed group, 100 mg/kg oral): no significant effect

O=C(/C=C/c1cccc(C(=O)NO)c1)NO [CBHA, m-carboxy-cinnamic acid bishydroxamic acid]
inhibition of HDAC (HDAC): micromolar concentration or lower

depudecin
inhibition of HDAC (HDAC): micromolar concentrations

C/C=C1\NC(=O)[C@H]2CSSCC/C=C/[C@H](CC(=O)N[C@H](C(C)C)C(=O)N2)OC(=O)[C@H](C(C)C)NC1=O [Depsipeptide]
inhibition of HDAC (HDAC): micromolar concentrations

trichostatin A [TSA]
inhibition of HDAC (HDAC): potent inhibitor
